Measurements taken from the supplement of paper PMC10307832.

Experiments:
Assay in all cases: relative viability (nuclei count vs DMSO), 5 days (fraction); higher = more cells survive
Gemcitabine + Navitoclax = compound: Nc1ccn([C@@H]2O[C@H](CO)[C@@H](O)C2(F)F)c(=O)n1 [Gemcitabine] + CC1(C)CCC(c2ccc(Cl)cc2)=C(CN2CCN(c3ccc(C(=O)NS(=O)(=O)c4ccc(N[C@H](CCN5CCOCC5)CSc5ccccc5)c(S(=O)(=O)C(F)(F)F)c4)cc3)CC2)C1 [Navitoclax] (partner 0.5 µM)
In short: (§1)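 For relative viability, nuclei counts in treated wells were divided by those in vehicle wells. Lung cancer cell lines had been pin-tool dosed in 1536-well plates the day after seeding and cultured for 5 days, then fixed and stained in one step (final 0.05% Triton X-100, 1% formaldehyde, 1 ug/ml Hoechst) and imaged at 4×. Doses were one drug alone or a fixed anchor-drug dose plus five library-drug doses (not always all listed) in √10 steps, and values are duplicate-plate medians.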

Gemcitabine + Linsitinib = compound: Nc1ccn([C@@H]2O[C@H](CO)[C@@H](O)C2(F)F)c(=O)n1 [Gemcitabine] + C[C@]1(O)C[C@@H](c2nc(-c3ccc4ccc(-c5ccccc5)nc4c3)c3c(N)nccn32)C1 [Linsitinib] (partner 1 µM)
In short: as §1

Gemcitabine + Alpelisib = compound: Nc1ccn([C@@H]2O[C@H](CO)[C@@H](O)C2(F)F)c(=O)n1 [Gemcitabine] + Cc1nc(NC(=O)N2CCC[C@H]2C(N)=O)sc1-c1ccnc(C(C)(C)C(F)(F)F)c1 [Alpelisib] (partner 2 µM)
In short: as §1

Gemcitabine + Vorinostat = compound: Nc1ccn([C@@H]2O[C@H](CO)[C@@H](O)C2(F)F)c(=O)n1 [Gemcitabine] + O=C(CCCCCCC(=O)Nc1ccccc1)NO [Vorinostat] (partner 1 µM)
In short: as §1

NCI-H2085
relative viability (Gemcitabine + Navitoclax; first compound 0.001 µM): 1.1
relative viability (Gemcitabine + Navitoclax; first compound 0.003162 µM): 1.15
relative viability (Gemcitabine + Navitoclax; first compound 0.01 µM): 0.848
relative viability (Gemcitabine + Navitoclax; first compound 0.03162 µM): 0.646
relative viability (Gemcitabine + Navitoclax; first compound 0.1 µM): 0.484
relative viability (Gemcitabine + Linsitinib; first compound 0.001 µM): 0.795
relative viability (Gemcitabine + Linsitinib; first compound 0.003162 µM): 0.967
relative viability (Gemcitabine + Linsitinib; first compound 0.01 µM): 0.705
relative viability (Gemcitabine + Linsitinib; first compound 0.03162 µM): 0.57
relative viability (Gemcitabine + Linsitinib; first compound 0.1 µM): 0.404
relative viability (Gemcitabine + Alpelisib; first compound 0.001 µM): 0.892
relative viability (Gemcitabine + Alpelisib; first compound 0.003162 µM): 0.959
relative viability (Gemcitabine + Alpelisib; first compound 0.01 µM): 0.765
relative viability (Gemcitabine + Alpelisib; first compound 0.03162 µM): 0.57
relative viability (Gemcitabine + Alpelisib; first compound 0.1 µM): 0.429
relative viability (Gemcitabine + Vorinostat; first compound 0.001 µM): 0.857
relative viability (Gemcitabine + Vorinostat; first compound 0.003162 µM): 0.739
relative viability (Gemcitabine + Vorinostat; first compound 0.01 µM): 0.652
relative viability (Gemcitabine + Vorinostat; first compound 0.03162 µM): 0.621
relative viability (Gemcitabine + Vorinostat; first compound 0.1 µM): 0.368

IA-LM
relative viability (Gemcitabine + Navitoclax; first compound 0.001 µM): 0.896
relative viability (Gemcitabine + Navitoclax; first compound 0.003162 µM): 0.796
relative viability (Gemcitabine + Navitoclax; first compound 0.01 µM): 0.409
relative viability (Gemcitabine + Navitoclax; first compound 0.03162 µM): 0.0336
relative viability (Gemcitabine + Navitoclax; first compound 0.1 µM): 0.0251
relative viability (Gemcitabine + Linsitinib; first compound 0.001 µM): 0.768
relative viability (Gemcitabine + Linsitinib; first compound 0.003162 µM): 0.461
relative viability (Gemcitabine + Linsitinib; first compound 0.01 µM): 0.324
relative viability (Gemcitabine + Linsitinib; first compound 0.03162 µM): 0.149
relative viability (Gemcitabine + Linsitinib; first compound 0.1 µM): 0.0467
relative viability (Gemcitabine + Alpelisib; first compound 0.001 µM): 0.789
relative viability (Gemcitabine + Alpelisib; first compound 0.003162 µM): 0.644
relative viability (Gemcitabine + Alpelisib; first compound 0.01 µM): 0.744
relative viability (Gemcitabine + Alpelisib; first compound 0.03162 µM): 0.0658
relative viability (Gemcitabine + Alpelisib; first compound 0.1 µM): 0.0561
relative viability (Gemcitabine + Vorinostat; first compound 0.001 µM): 0.943
relative viability (Gemcitabine + Vorinostat; first compound 0.003162 µM): 0.907
relative viability (Gemcitabine + Vorinostat; first compound 0.01 µM): 0.865
relative viability (Gemcitabine + Vorinostat; first compound 0.03162 µM): 0.0796
relative viability (Gemcitabine + Vorinostat; first compound 0.1 µM): 0.0532

H3255
relative viability (Gemcitabine + Navitoclax; first compound 0.001 µM): 0.558
relative viability (Gemcitabine + Navitoclax; first compound 0.003162 µM): 0.404
relative viability (Gemcitabine + Navitoclax; first compound 0.01 µM): 0.135
relative viability (Gemcitabine + Navitoclax; first compound 0.03162 µM): 0.121
relative viability (Gemcitabine + Navitoclax; first compound 0.1 µM): 0.106
relative viability (Gemcitabine + Linsitinib; first compound 0.001 µM): 0.954
relative viability (Gemcitabine + Linsitinib; first compound 0.003162 µM): 0.644
relative viability (Gemcitabine + Linsitinib; first compound 0.01 µM): 0.762
relative viability (Gemcitabine + Linsitinib; first compound 0.03162 µM): 0.233
relative viability (Gemcitabine + Linsitinib; first compound 0.1 µM): 0.145
relative viability (Gemcitabine + Alpelisib; first compound 0.001 µM): 0.8
relative viability (Gemcitabine + Alpelisib; first compound 0.003162 µM): 0.403
relative viability (Gemcitabine + Alpelisib; first compound 0.01 µM): 0.472
relative viability (Gemcitabine + Alpelisib; first compound 0.03162 µM): 0.185
relative viability (Gemcitabine + Alpelisib; first compound 0.1 µM): 0.168
relative viability (Gemcitabine + Vorinostat; first compound 0.001 µM): 0.834
relative viability (Gemcitabine + Vorinostat; first compound 0.003162 µM): 0.848
relative viability (Gemcitabine + Vorinostat; first compound 0.01 µM): 0.289
relative viability (Gemcitabine + Vorinostat; first compound 0.03162 µM): 0.296
relative viability (Gemcitabine + Vorinostat; first compound 0.1 µM): 0.251

LOU-NH91
relative viability (Gemcitabine + Navitoclax; first compound 0.001 µM): 0.717
relative viability (Gemcitabine + Navitoclax; first compound 0.003162 µM): 0.448
relative viability (Gemcitabine + Navitoclax; first compound 0.01 µM): 0.292
relative viability (Gemcitabine + Navitoclax; first compound 0.03162 µM): 0.213
relative viability (Gemcitabine + Navitoclax; first compound 0.1 µM): 0.213
relative viability (Gemcitabine + Linsitinib; first compound 0.001 µM): 0.922
relative viability (Gemcitabine + Linsitinib; first compound 0.003162 µM): 0.686
relative viability (Gemcitabine + Linsitinib; first compound 0.01 µM): 0.547
relative viability (Gemcitabine + Linsitinib; first compound 0.03162 µM): 0.311
relative viability (Gemcitabine + Linsitinib; first compound 0.1 µM): 0.281
relative viability (Gemcitabine + Alpelisib; first compound 0.001 µM): 0.726
relative viability (Gemcitabine + Alpelisib; first compound 0.003162 µM): 0.515
relative viability (Gemcitabine + Alpelisib; first compound 0.01 µM): 0.457
relative viability (Gemcitabine + Alpelisib; first compound 0.03162 µM): 0.316
relative viability (Gemcitabine + Alpelisib; first compound 0.1 µM): 0.263
relative viability (Gemcitabine + Vorinostat; first compound 0.001 µM): 0.943
relative viability (Gemcitabine + Vorinostat; first compound 0.003162 µM): 0.761
relative viability (Gemcitabine + Vorinostat; first compound 0.01 µM): 0.421
relative viability (Gemcitabine + Vorinostat; first compound 0.03162 µM): 0.22
relative viability (Gemcitabine + Vorinostat; first compound 0.1 µM): 0.268

NCI-H3122
relative viability (Gemcitabine + Navitoclax; first compound 0.001 µM): 1.02
relative viability (Gemcitabine + Navitoclax; first compound 0.003162 µM): 1.03
relative viability (Gemcitabine + Navitoclax; first compound 0.01 µM): 0.912
relative viability (Gemcitabine + Navitoclax; first compound 0.03162 µM): 0.253
relative viability (Gemcitabine + Navitoclax; first compound 0.1 µM): 0.196
relative viability (Gemcitabine + Linsitinib; first compound 0.001 µM): 1.04
relative viability (Gemcitabine + Linsitinib; first compound 0.003162 µM): 0.957
relative viability (Gemcitabine + Linsitinib; first compound 0.01 µM): 0.892
relative viability (Gemcitabine + Linsitinib; first compound 0.03162 µM): 0.262
relative viability (Gemcitabine + Linsitinib; first compound 0.1 µM): 0.174
relative viability (Gemcitabine + Alpelisib; first compound 0.001 µM): 0.824
relative viability (Gemcitabine + Alpelisib; first compound 0.003162 µM): 0.774
relative viability (Gemcitabine + Alpelisib; first compound 0.01 µM): 0.627
relative viability (Gemcitabine + Alpelisib; first compound 0.03162 µM): 0.234
relative viability (Gemcitabine + Alpelisib; first compound 0.1 µM): 0.165
relative viability (Gemcitabine + Vorinostat; first compound 0.001 µM): 0.926
relative viability (Gemcitabine + Vorinostat; first compound 0.003162 µM): 1.09
relative viability (Gemcitabine + Vorinostat; first compound 0.01 µM): 0.618
relative viability (Gemcitabine + Vorinostat; first compound 0.03162 µM): 0.202
relative viability (Gemcitabine + Vorinostat; first compound 0.1 µM): 0.098

PC-3 [JPC-3]
relative viability (Gemcitabine + Navitoclax; first compound 0.001 µM): 0.81
relative viability (Gemcitabine + Navitoclax; first compound 0.003162 µM): 0.688
relative viability (Gemcitabine + Navitoclax; first compound 0.01 µM): 0.504
relative viability (Gemcitabine + Navitoclax; first compound 0.03162 µM): 0.448
relative viability (Gemcitabine + Navitoclax; first compound 0.1 µM): 0.281
relative viability (Gemcitabine + Linsitinib; first compound 0.001 µM): 1.03
relative viability (Gemcitabine + Linsitinib; first compound 0.003162 µM): 0.77
relative viability (Gemcitabine + Linsitinib; first compound 0.01 µM): 0.692
relative viability (Gemcitabine + Linsitinib; first compound 0.03162 µM): 0.342
relative viability (Gemcitabine + Linsitinib; first compound 0.1 µM): 0.309
relative viability (Gemcitabine + Alpelisib; first compound 0.001 µM): 1.13
relative viability (Gemcitabine + Alpelisib; first compound 0.003162 µM): 0.736
relative viability (Gemcitabine + Alpelisib; first compound 0.01 µM): 0.649
relative viability (Gemcitabine + Alpelisib; first compound 0.03162 µM): 0.264
relative viability (Gemcitabine + Alpelisib; first compound 0.1 µM): 0.248
relative viability (Gemcitabine + Vorinostat; first compound 0.001 µM): 0.659
relative viability (Gemcitabine + Vorinostat; first compound 0.003162 µM): 0.536
relative viability (Gemcitabine + Vorinostat; first compound 0.01 µM): 0.36
relative viability (Gemcitabine + Vorinostat; first compound 0.03162 µM): 0.338
relative viability (Gemcitabine + Vorinostat; first compound 0.1 µM): 0.366

NCI-H1651
relative viability (Gemcitabine + Navitoclax; first compound 0.001 µM): 1.07
relative viability (Gemcitabine + Navitoclax; first compound 0.003162 µM): 1.16
relative viability (Gemcitabine + Navitoclax; first compound 0.01 µM): 0.928
relative viability (Gemcitabine + Navitoclax; first compound 0.03162 µM): 0.204
relative viability (Gemcitabine + Navitoclax; first compound 0.1 µM): 0.0844
relative viability (Gemcitabine + Linsitinib; first compound 0.001 µM): 0.884
relative viability (Gemcitabine + Linsitinib; first compound 0.003162 µM): 1.04
relative viability (Gemcitabine + Linsitinib; first compound 0.01 µM): 0.69
relative viability (Gemcitabine + Linsitinib; first compound 0.03162 µM): 0.211
relative viability (Gemcitabine + Linsitinib; first compound 0.1 µM): 0.0842
relative viability (Gemcitabine + Alpelisib; first compound 0.001 µM): 0.923
relative viability (Gemcitabine + Alpelisib; first compound 0.003162 µM): 0.967
relative viability (Gemcitabine + Alpelisib; first compound 0.01 µM): 0.889
relative viability (Gemcitabine + Alpelisib; first compound 0.03162 µM): 0.159
relative viability (Gemcitabine + Alpelisib; first compound 0.1 µM): 0.0819
relative viability (Gemcitabine + Vorinostat; first compound 0.001 µM): 0.555
relative viability (Gemcitabine + Vorinostat; first compound 0.003162 µM): 0.537
relative viability (Gemcitabine + Vorinostat; first compound 0.01 µM): 0.548
relative viability (Gemcitabine + Vorinostat; first compound 0.03162 µM): 0.301
relative viability (Gemcitabine + Vorinostat; first compound 0.1 µM): 0.115

NCI-H2087
relative viability (Gemcitabine + Navitoclax; first compound 0.001 µM): 1.11
relative viability (Gemcitabine + Navitoclax; first compound 0.003162 µM): 0.813
relative viability (Gemcitabine + Navitoclax; first compound 0.01 µM): 0.397
relative viability (Gemcitabine + Navitoclax; first compound 0.03162 µM): 0.156
relative viability (Gemcitabine + Navitoclax; first compound 0.1 µM): 0.153
relative viability (Gemcitabine + Linsitinib; first compound 0.001 µM): 0.93
relative viability (Gemcitabine + Linsitinib; first compound 0.003162 µM): 0.808
relative viability (Gemcitabine + Linsitinib; first compound 0.01 µM): 0.579
relative viability (Gemcitabine + Linsitinib; first compound 0.03162 µM): 0.217
relative viability (Gemcitabine + Linsitinib; first compound 0.1 µM): 0.183
relative viability (Gemcitabine + Alpelisib; first compound 0.001 µM): 1.26
relative viability (Gemcitabine + Alpelisib; first compound 0.003162 µM): 0.872
relative viability (Gemcitabine + Alpelisib; first compound 0.01 µM): 0.38
relative viability (Gemcitabine + Alpelisib; first compound 0.03162 µM): 0.15
relative viability (Gemcitabine + Alpelisib; first compound 0.1 µM): 0.14
relative viability (Gemcitabine + Vorinostat; first compound 0.001 µM): 0.862
relative viability (Gemcitabine + Vorinostat; first compound 0.003162 µM): 0.174
relative viability (Gemcitabine + Vorinostat; first compound 0.01 µM): 0.304
relative viability (Gemcitabine + Vorinostat; first compound 0.03162 µM): 0.0713
relative viability (Gemcitabine + Vorinostat; first compound 0.1 µM): 0.109
